“And” between values parts separate entries of the source, which are not always exact repeats. Equal entries are not always repeated. Toxic doses and inconclusive results are not listed. The calls were made as follows: active = survival T/C of 150% or more; inactive = T/C below 125% in these data. Peptide text beside a SMILES is read from it.
Tested on: BDF1 mice, B16 melanoma ip, median survival T/C
Experiment: NCI In Vivo Anticancer Drug Screen. Data for tumor model B16 Melanoma (intraperitoneal) in B6D2F1 (BDF1) mice
Conditions: endpoint: median survival time, higher = longer survival
Procedure, shortened: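 Tumor-bearing mice received test compound or vehicle. Survival or tumor size was then measured in both groups. The treated-group figure was divided by the control-group figure.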

[1] = dose: 12.5 mg/kg/injection, schedule: Q01DX009 (ip), vehicle: saline with Tween-80
[2] = dose: 25.0 mg/kg/injection, schedule: Q01DX009 (ip), vehicle: saline with Tween-80
[3] = dose: 50.0 mg/kg/injection, schedule: Q01DX009 (ip), vehicle: saline with Tween-80
[4] = dose: 100.0 mg/kg/injection, schedule: Q01DX009 (ip), vehicle: saline with Tween-80
[5] = dose: 50.0 mg/kg/injection, schedule: Q01DX009 (ip), vehicle: Klucel (hydroxypropylcellulose) (HPC)
[6] = dose: 100.0 mg/kg/injection, schedule: Q01DX009 (ip), vehicle: Klucel (hydroxypropylcellulose) (HPC)
[7] = dose: 200.0 mg/kg/injection, schedule: Q01DX009 (ip), vehicle: Klucel (hydroxypropylcellulose) (HPC)

Measured: T/C

CCC1(O)CC2c3ccccc3CCN2CC1CC(C)C (stereo not given)
inactive: dose: 0.19 mg/kg/injection, schedule: Q01DX009 (ip), vehicle: saline 104 % of control | dose: 0.39 mg/kg/injection, schedule: Q01DX009 (ip), vehicle: saline 111 % of control | dose: 0.78 mg/kg/injection, schedule: Q01DX009 (ip), vehicle: saline 109 % of control | dose: 1.56 mg/kg/injection, schedule: Q01DX009 (ip), vehicle: saline 112 % of control | dose: 3.12 mg/kg/injection, schedule: Q01DX009 (ip), vehicle: saline 112 % of control

CCCCCCC#CC(=O)OC
inactive: [1] 110 % of control | [2] 93 % of control | [3] 97 % of control and 100 % of control

CCOC(=O)CCc1ccc(O)c(O)c1
inactive: dose: 37.5 mg/kg/injection, schedule: Q04DX003 (ip), vehicle: saline 102 % of control | dose: 50.0 mg/kg/injection, schedule: Q01DX009 (ip), vehicle: saline 113 % of control | dose: 75.0 mg/kg/injection, schedule: Q04DX003 (ip), vehicle: saline 102 % of control | dose: 100.0 mg/kg/injection, schedule: Q01DX009 (ip), vehicle: saline 110 % of control | dose: 150.0 mg/kg/injection, schedule: Q04DX003 (ip), vehicle: saline 97 % of control | dose: 200.0 mg/kg/injection, schedule: Q01DX009 (ip), vehicle: saline 97 % of control

O=CN(c1ccccc1)c1ccccc1
inactive: dose: 50.0 mg/kg/injection, schedule: Q01DX009 (ip), vehicle: other 100 % of control | dose: 100.0 mg/kg/injection, schedule: Q01DX009 (ip), vehicle: other 100 % of control | dose: 200.0 mg/kg/injection, schedule: Q01DX009 (ip), vehicle: other 105 % of control | dose: 400.0 mg/kg/injection, schedule: Q01DX009 (ip), vehicle: other 97 % of control

CC1CC(C)CC(C)C(O)/C(C#N)=C/C=C/CC(C2CCCC2C(=O)O)OC(=O)CC(O)C(C)C1 (stereo not given)
inactive: dose: 0.12 mg/kg/injection, schedule: Q01DX009 (ip), vehicle: Klucel (hydroxypropylcellulose) (HPC) 111 % of control | dose: 0.12 mg/kg/injection, schedule: Q01DX009 (ip), vehicle: saline with Tween-80 119 % of control | dose: 0.25 mg/kg/injection, schedule: Q01DX009 (ip), vehicle: Klucel (hydroxypropylcellulose) (HPC) 108 % of control | dose: 0.25 mg/kg/injection, schedule: Q01DX009 (ip), vehicle: saline with Tween-80 113 % of control | dose: 0.5 mg/kg/injection, schedule: Q01DX009 (ip), vehicle: Klucel (hydroxypropylcellulose) (HPC) 110 % of control | dose: 1.0 mg/kg/injection, schedule: Q01DX009 (ip), vehicle: Klucel (hydroxypropylcellulose) (HPC) 107 % of control | dose: 2.0 mg/kg/injection, schedule: Q01DX009 (ip), vehicle: Klucel (hydroxypropylcellulose) (HPC) 105 % of control | dose: 4.0 mg/kg/injection, schedule: Q01DX009 (ip), vehicle: Klucel (hydroxypropylcellulose) (HPC) 98 % of control

O=C(NC(CSCc1ccccc1)C(=O)O)OCc1ccccc1 (stereo not given)
inactive: [1] 107 % of control | [2] 107 % of control | [3] 98 % of control and 103 % of control | [4] 87 % of control

CCCCCCCCCCCc1n(Cc2ccccc2)cc[n+]1C
inactive: dose: 0.75 mg/kg/injection, schedule: Q01DX009 (ip), vehicle: saline 86 % of control | dose: 1.5 mg/kg/injection, schedule: Q01DX009 (ip), vehicle: saline 90 % of control | dose: 3.0 mg/kg/injection, schedule: Q01DX009 (ip), vehicle: saline 97 % of control

O=C(O)C1c2ccccc2Cc2ccccc21
inactive: dose: 37.5 mg/kg/injection, schedule: Q04DX003 (ip), vehicle: Klucel (hydroxypropylcellulose) (HPC) 122 % of control | [5] 97 % of control | dose: 75.0 mg/kg/injection, schedule: Q04DX003 (ip), vehicle: Klucel (hydroxypropylcellulose) (HPC) 119 % of control | [6] 100 % of control | dose: 150.0 mg/kg/injection, schedule: Q04DX003 (ip), vehicle: Klucel (hydroxypropylcellulose) (HPC) 119 % of control | [7] 105 % of control

c1cc[c]([Pb]([c]2ccccc2)([c]2ccccc2)[n]2ccc3ccccc32)cc1
inactive: dose: 2.08 mg/kg/injection, schedule: Q01DX009 (ip), vehicle: saline with Tween-80 102 % of control | dose: 3.12 mg/kg/injection, schedule: Q01DX009 (ip), vehicle: saline with Tween-80 97 % of control

CCOC(=O)NNC(=O)c1ccccc1N(C)C
inactive: [6] 116 % of control | [7] 104 % of control | dose: 400.0 mg/kg/injection, schedule: Q01DX009 (ip), vehicle: Klucel (hydroxypropylcellulose) (HPC) 92 % of control

CC(C)CC(NC(=O)C(C)NC(=O)CN)C(=O)O (stereo not drawn) (H-Gly-Ala-Leu-OH; configuration not given here)
inactive: [3] 97 % of control | [4] 96 % of control | dose: 200.0 mg/kg/injection, schedule: Q01DX009 (ip), vehicle: saline with Tween-80 98 % of control | dose: 400.0 mg/kg/injection, schedule: Q01DX009 (ip), vehicle: saline with Tween-80 103 % of control

CNC(=O)ON(C(C)=O)C(=O)NC
inactive: dose: 12.5 mg/kg/injection, schedule: Q01DX009 (ip), vehicle: saline 87 % of control | dose: 25.0 mg/kg/injection, schedule: Q01DX009 (ip), vehicle: saline 88 % of control

CC(=O)n1cc(F)c(=O)[nH]c1=O
inactive: dose: 5.3 mg/kg/injection, schedule: Q01DX009 (ip), vehicle: Klucel (hydroxypropylcellulose) (HPC) 91 % of control | dose: 8.0 mg/kg/injection, schedule: Q01DX009 (ip), vehicle: Klucel (hydroxypropylcellulose) (HPC) 91 % of control | dose: 12.0 mg/kg/injection, schedule: Q01DX009 (ip), vehicle: Klucel (hydroxypropylcellulose) (HPC) 104 % of control | dose: 18.0 mg/kg/injection, schedule: Q01DX009 (ip), vehicle: Klucel (hydroxypropylcellulose) (HPC) 120 % of control | dose: 27.0 mg/kg/injection, schedule: Q01DX009 (ip), vehicle: Klucel (hydroxypropylcellulose) (HPC) 114 % of control

O=[N+]([O-])O.[NH-]C1CCCCC1[NH-].[NH-]C1CCCCC1[NH-].[OH-].[OH-].[Pt+4].[Pt+4] (stereo not given)
inactive: dose: 0.25 mg/kg/injection, schedule: Q01DX009 (ip), vehicle: water 110 % of control and 111 % of control | dose: 0.5 mg/kg/injection, schedule: Q01DX009 (ip), vehicle: water 120 % of control and 124 % of control

CN(CCO)/N=N/c1nc[nH]c1C(N)=O
inactive: dose: 50.0 mg/kg/injection, schedule: Q01DX009 (ip), vehicle: carboxymethylcellulose (CMC) 105 % of control

C=C(C)C12OC3(/C=C/C=C/CCCCC)OC1C1C4OC4(CO)C(O)C4(O)C(=O)C(C)=CC4C1(O3)C(C)C2OC(=O)c1ccccc1 (stereo not given)
inactive: dose: 0.5 micrograms/kg/injection, schedule: Q01DX009 (ip), vehicle: saline 104 % of control | dose: 1.0 micrograms/kg/injection, schedule: Q01DX009 (ip), vehicle: saline 104 % of control | dose: 1.9 micrograms/kg/injection, schedule: Q01DX009 (ip), vehicle: saline 105 % of control | dose: 3.8 micrograms/kg/injection, schedule: Q01DX009 (ip), vehicle: saline 104 % of control | dose: 7.5 micrograms/kg/injection, schedule: Q01DX009 (ip), vehicle: saline 97 % of control | dose: 15.0 micrograms/kg/injection, schedule: Q01DX009 (ip), vehicle: saline 104 % of control | dose: 30.0 micrograms/kg/injection, schedule: Q01DX009 (ip), vehicle: saline 98 % of control

CN(C)c1ccc2c(N(C)C)cc(N(C)C)nc2c1
inactive: dose: 3.12 mg/kg/injection, schedule: Q01DX009 (ip), vehicle: Klucel (hydroxypropylcellulose) (HPC) 99 % of control | dose: 6.25 mg/kg/injection, schedule: Q01DX009 (ip), vehicle: Klucel (hydroxypropylcellulose) (HPC) 107 % of control | dose: 12.5 mg/kg/injection, schedule: Q01DX009 (ip), vehicle: Klucel (hydroxypropylcellulose) (HPC) 97 % of control | dose: 25.0 mg/kg/injection, schedule: Q01DX009 (ip), vehicle: Klucel (hydroxypropylcellulose) (HPC) 108 % of control | [5] 102 % of control

CS(C)=O
inactive: dose: 1:200.0 dilution, schedule: Q03HX088 (ip), vehicle: saline 89 % of control | dose: 1:400.0 dilution, schedule: Q03HX088 (ip), vehicle: saline 89 % of control | dose: 1.5 grams/kg/injection, schedule: Q01DX009 (ip), vehicle: saline 96 % of control and 101 % of control | dose: 3.0 grams/kg/injection, schedule: Q01DX009 (ip), vehicle: saline 106 % of control and 108 % of control | dose: 6.0 grams/kg/injection, schedule: Q01DX009 (ip), vehicle: saline 97 % of control

From PubChem BioAssay AID192 (DTP/NCI, 2004)
